Drawing on patent US8003649B2 (AstraZeneca AB, priority 2007, dated 2011), this text covers DC50 for 22 molecules.

The assay addresses T1, Androgen Receptor (AR) (Homo sapiens, UniProt P10275, T878A).
T1 construct: cell based immuno-fluorescence assay using the LNCaP prostate epithelial cell line; endogenous in cells; host or cells: LNCaP clone FGC (ATCC CRL-1740)
T1 sequence (P10275 1-920 T878A): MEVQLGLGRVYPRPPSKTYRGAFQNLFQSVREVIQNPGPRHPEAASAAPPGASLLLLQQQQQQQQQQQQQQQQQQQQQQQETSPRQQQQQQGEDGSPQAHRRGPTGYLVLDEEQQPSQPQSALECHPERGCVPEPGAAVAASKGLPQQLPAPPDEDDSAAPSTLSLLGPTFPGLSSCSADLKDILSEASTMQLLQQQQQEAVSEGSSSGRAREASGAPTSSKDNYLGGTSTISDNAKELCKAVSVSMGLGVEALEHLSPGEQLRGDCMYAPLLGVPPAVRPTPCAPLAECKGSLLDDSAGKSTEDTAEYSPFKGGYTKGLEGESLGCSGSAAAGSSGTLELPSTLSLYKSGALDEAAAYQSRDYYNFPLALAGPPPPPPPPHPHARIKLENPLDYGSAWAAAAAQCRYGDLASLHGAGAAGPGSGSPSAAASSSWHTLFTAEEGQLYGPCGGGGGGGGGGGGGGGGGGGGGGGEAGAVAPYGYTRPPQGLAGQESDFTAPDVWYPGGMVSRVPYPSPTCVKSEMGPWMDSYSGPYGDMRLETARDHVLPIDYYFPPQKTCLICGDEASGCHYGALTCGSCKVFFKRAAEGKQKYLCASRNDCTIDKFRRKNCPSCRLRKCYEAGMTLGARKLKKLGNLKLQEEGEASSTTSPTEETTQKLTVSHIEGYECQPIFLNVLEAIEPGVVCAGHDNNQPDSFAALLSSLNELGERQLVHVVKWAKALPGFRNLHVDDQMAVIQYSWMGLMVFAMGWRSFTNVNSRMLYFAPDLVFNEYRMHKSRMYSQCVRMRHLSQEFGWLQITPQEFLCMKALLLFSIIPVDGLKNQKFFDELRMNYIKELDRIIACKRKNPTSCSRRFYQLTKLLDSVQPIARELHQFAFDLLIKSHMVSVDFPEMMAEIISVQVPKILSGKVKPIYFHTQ
Kind of assay: LNCaP Androgen Receptor Down-regulation Cell Assay (immunofluorescence end point). Particulars: LNCaP prostate carcinoma cells, compound incubation 20-22 hours, 50% reduction of the AR signal; read-out: Androgen Receptor Down-regulation Assay (a) IC50/μM. It counts as cell-based. The protocol:
The ability of compounds to reduce Androgen Receptor (AR) numbers was assessed in a cell based immuno-fluorescence assay using the LNCaP prostate epithelial cell line.
a) LNCaP Androgen Receptor Down-regulation Cell Assay
A 5 ml volume of Growth Medium was added to each flask (as above except that 5% (v/v) charcoal stripped FBS (HyClone Code no. SH30068.03) was included instead of 10% (v/v) FBS). Cells were syringed at least twice using a sterile 18G×1.5″ (1.2×40 mm) broad gauge needle and cell density was measured using a haemocytometer.
Test data reported herein was generated using two different compounds preparation and dosing methods. In method (1) a 10 mM compound stock solution in 100% (v/v) DMSO was serially diluted in 4-fold steps in 100% (v/v) DMSO using a Thermo Scientific Matrix SerialMate. The diluted compounds were then further diluted 1 in 30 in assay media using a Thermo Scientific Matrix PlateMate and a 10 μl aliquot of this dilution was dosed to cells manually using a multi-channel pipette. In method (2) starting with a 10 mM compound stock solution, the Labcyte Echo 550 was used to generate a compound concentration response set diluted in 30 μl of assay media. The Echo 550 is a liquid handler that uses acoustic technology to perform direct microplate-to-microplate transfers of DMSO compound solutions. The system can be programmed to transfer volumes as low as […] in multiple increments between microplates and in so doing generates a serial dilution of compound which is then back-filled to normalise the DMSO concentration across the dilution range. A 10 μl volume of diluted compound is then dosed to cells using a Thermo Scientific Matrix PlateMate.
Plates were incubated overnight at 37° C., 5% CO2. Wells were then dosed with compound prepared by one of the 2 methods above and further incubated for 20-22 hours at 37° C., 5% CO2. […] This fixative solution was removed and cells were washed with 250 μl of PBS/0.05% (v/v) Tween 20 (PBST) using an automated plate washer. This process was then repeated twice more.
Immunostaining was performed at room temperature. Cells were permeabilised by the addition of 35 μl of PBS containing 0.5% Tween 20 and incubated for 1 hour at room temperature. Permeabilisation solution was removed and cells were washed with 250 μl of PBST using an automated plate washer. This process was then repeated twice more. 35 μl of Blocking Solution (PBST containing 3% (w/v) Marvel dried skimmed milk (Nestle)) was added to each well and plates were incubated at room temperature for a minimum of 1 hour. […] Then this primary antibody solution was removed from the wells followed by 3×100 μl PBST washes using a plate washer. […] Henceforth, wherever possible, plates were protected from light exposure. The plates were incubated for 1 hour and then the secondary antibody solution was removed from the wells followed by 3×100 ul PBST washes using a plate washer. Then 50 μl of PBST was added to each well and plates were covered with a black plate seal and stored at 4° C. before being read. Plates were read within six hours of completing the immunostaining.
The Green Fluorescent AR-associated signal in each well was measured using an Acumen Explorer HTS Reader (TTP Labtech Ltd., Cambridge). […] The instrument is a laser-scanning fluorescence microplate cytometer which samples the well at regular intervals and uses threshold algorithms to identify all fluorescent intensities above the solution background without the need to generate and analyse an image. These fluorescent objects can be quantified and provide a measure of the AR levels in cells. Fluorescence dose response data obtained with each compound was exported into a suitable software package (such as Origin) to perform curve fitting analysis. Down-regulation of AR levels was expressed as an IC50 value.
Consider `FC(F)C(F)(F)c1nnc2ccc(N3CCN(C(c4ccccc4)c4ccccc4)CC3)nn12` [Example 1, 6-(4-benzhydrylpiperazin-1-yl)-3-(1,1,2,2-tetrafluoroethyl)-[1,2,4]triazolo[4,3-b]pyridazine], for which the DC50 is 3.4 µM. As to `FC(F)C(F)(F)c1nnc2ccc(N3CCCN(Cc4ccccc4)CC3)nn12` [Example 2, 6-(4-benzyl-1,4-diazepan-1-yl)-3-(1,1,2,2-tetrafluoroethyl)-[1,2,4]triazolo[4,3-b]pyridazine], the DC50 worked out at 8.3 µM.

For `FC(F)c1nnc2ccc(N3CCN(C(c4ccccc4)c4ccccc4)CC3)nn12` [Example 5, 6-(4-benzhydrylpiperazin-1-yl)-3-(difluoromethyl)-[1,2,4]triazolo[4,3-b]pyridazine], the DC50 is 1.6 µM. Turning to `FC(F)c1nnc2ccc(N3CCCN(Cc4ccccc4)CC3)nn12` [Example 6, 6-(4-benzyl-1,4-diazepan-1-yl)-3-(difluoromethyl)-[1,2,4]triazolo[4,3-b]pyridazine], the DC50 stood at 7.5 µM. For the molecule `Clc1nnc2ccc(N3CCN(C(c4ccccc4)c4ccccc4)CC3)nn12` [Example 8, 6-(4-benzhydrylpiperazin-1-yl)-3-chloro-[1,2,4]triazolo[4,3-b]pyridazine], the DC50 is 1.7 µM. Take `CSc1nnc2ccc(N3CCN(C(c4ccccc4)c4ccccc4)CC3)nn12` [Example 9, 6-(4-benzhydrylpiperazin-1-yl)-3-methylsulfanyl-[1,2,4]triazolo[4,3-b]pyridazine]: the DC50 was found to be 1.7 µM.

`FC(F)(F)c1nnc2ccc(N3CCN(c4ccc(Br)cn4)CC3)nn12` [Example 11, 6-[4-(5-bromopyridin-2-yl)piperazin-1-yl]-3-(trifluoromethyl)-[1,2,4]triazolo[4,3-b]pyridazine]: the DC50 came to 2.5 µM. Regarding `Cc1cc(N2CCN(Cc3ccc(C#N)cc3)CC2)nn2c(C(F)(F)F)nnc12` [Example 12, 4-((4-(8-Methyl-3-(trifluoromethyl)-[1,2,4]triazolo[4,3-b]pyridazin-6-yl)piperazin-1-yl)methyl)benzonitrile], the DC50 stood at 4.3 µM. `Cc1cc2nnc(C(F)(F)F)n2nc1N1CCN(Cc2ccc(C#N)cc2)CC1` [Example 13, 4-((4-(7-Methyl-3-(trifluoromethyl)-[1,2,4]triazolo[4,3-b]pyridazin-6-yl)piperazin-1-yl)methyl)benzonitrile]: the DC50 was 8.4 µM. In the case of `FC(F)(F)c1nnc2ccc(N3CCN(Cc4ccc(Cl)cc4)CC3)nn12` [Example 14, 6-[4-[(4-chlorophenyl)methyl]piperazin-1-yl]-3-(trifluoromethyl)-[1,2,4]triazolo[4,3-b]pyridazine], the DC50 stood at 0.69 µM.

Regarding `COc1ccc(CN2CCN(c3ccc4nnc(C(F)(F)F)n4n3)CC2)cc1` [Example 15, 6-[4-[(4-methoxyphenyl)methyl]piperazin-1-yl]-3-(trifluoromethyl)-[1,2,4]triazolo[4,3-b]pyridazine], the DC50 worked out at 2.5 µM.

Take `Cc1cccc(C)c1N1CCN(c2ccc3nnc(C(F)(F)F)n3n2)CC1` [Example 16, 6-[4-(2,6-dimethylphenyl)piperazin-1-yl]-3-(trifluoromethyl)-[1,2,4]triazolo[4,3-b]pyridazine]: the DC50 came to 0.77 µM. Under `CC(=O)c1ccc(N2CCN(c3ccc4nnc(C(F)(F)F)n4n3)CC2)cc1` [Example 17, 1-[4-[4-[3-(trifluoromethyl)-[1,2,4]triazolo[4,3-b]pyridazin-6-yl]piperazin-1-yl]phenyl]ethanone] stands 2.5 µM; under `FC(F)(F)c1nnc2ccc(N3CCN(c4c(Cl)cncc4Cl)CC3)nn12` [Example 19, 6-[4-(3,5-dichloropyridin-4-yl)piperazin-1-yl]-3-(trifluoromethyl)-[1,2,4]triazolo[4,3-b]pyridazine], 0.52 µM; under `O=C1NCN(c2ccccc2)C12CCN(c1ccc3nnc(C(F)(F)F)n3n1)CC2` [Example 20, 1-phenyl-8-[3-(trifluoromethyl)-[1,2,4]triazolo[4,3-b]pyridazin-6-yl]-1,3,8-triazaspiro[4.5]decan-4-one], 1.8 µM. For the molecule `O=[N+]([O-])c1ccc(N2CCN(c3ccc4nnc(C(F)(F)F)n4n3)CC2)cc1` [Example 21, 6-[4-(4-nitrophenyl)piperazin-1-yl]-3-(trifluoromethyl)-[1,2,4]triazolo[4,3-b]pyridazine], the DC50 is 0.27 µM. On to `FC(F)(F)c1nnc2ccc(N3CCN(C(c4ccccc4)c4ccccc4)CC3)nn12` [Example 22, 6-(4-benzhydrylpiperazin-1-yl)-3-(trifluoromethyl)-[1,2,4]triazolo[4,3-b]pyridazine], for which the DC50 was 1.4 µM. Turning to `FC(F)(F)c1nnc2ccc(N3CCN(CCc4ccccc4)CC3)nn12` [Example 23, 6-(4-phenethylpiperazin-1-yl)-3-(trifluoromethyl)-[1,2,4]triazolo[4,3-b]pyridazine], the DC50 worked out at 0.45 µM. The same measure for `O=C(CN1CCN(c2ccc3nnc(C(F)(F)F)n3n2)CC1)N1CCCCC1` [Example 24, 1-piperidin-1-yl-2-[4-[3-(trifluoromethyl)-[1,2,4]triazolo[4,3-b]pyridazin-6-yl]piperazin-1-yl]ethanone]: over 26 µM. Under `COc1ccc(C(c2ccccc2)N2CCN(c3ccc4nnc(C(F)(F)F)n4n3)CC2)cc1` (stereo not shown) [Example 25, 6-[4-[(4-methoxyphenyl)-phenylmethyl]piperazin-1-yl]-3-(trifluoromethyl)-[1,2,4]triazolo[4,3-b]pyridazine] stands 1.1 µM.

Regarding `FC(F)(F)c1ccc(C(c2ccccc2)N2CCN(c3ccc4nnc(C(F)(F)F)n4n3)CC2)cc1` (stereo not shown) [Example 26, 6-[4-[phenyl-[4-(trifluoromethyl)phenyl]methyl]piperazin-1-yl]-3-(trifluoromethyl)-[1,2,4]triazolo[4,3-b]pyridazine], the DC50 was found to be 1 µM. On to `Cc1cc(NCC2CC[C@@H]3CN(c4ccc5nnc(C(F)(F)F)n5n4)CCN3C2)c2ccccc2n1` (stereo partly drawn) [Example 28, N-[[(9aR)-2-[3-(trifluoromethyl)-[1,2,4]triazolo[4,3-b]pyridazin-6-yl]-1,3,4,6,7,8,9,9a-octahydropyrido[1,6-a]pyrazin-7-yl]methyl]-2-methylquinolin-4-amine], for which the DC50 was 2.8 µM.
